# Legend:
# MSCs = assay: MSC morphology during cardiac induction with 5-aza; type: cell-based, human; conditions: MSCs treated with 5-aza
# Excerpt: In order to establish morphology changes occurred in MSCs treated with 5-aza, photographs were taken daily for later analysis. […] After 20 days, confluence in both conditions was quite similar and reached 100%. In some dishes, it was common to find a reduced percentage (10%) of cells with vacuoles inside them. On the other hand, it was also noted that a large percentage (approximately 70%) of cells adopted a rounded and flat morphology, while other presented a longish tubular morphology which, in some cases, were multi-core.
# For induction, MSCs we incubated with DMEM, 2% FBS, 1% Pen/Strep, 1% L-glutamine, supplemented with 10 μM 5-zacitidine (Sigma, USA) during 24 hours, and kept in a humidified and thermo-regulated incubator at 37° C. and 5% CO2. Later, they were removed from the induction medium, cells were washed three times with PBS 1× adjusted to ph 7.4 (Life Technologies, USA), and cultured in a maintenance medium during 30 days, being renewed every three days. The control condition corresponded to cells submitted to DMEM 2% FBS with no 5-aza during 24 hours, and then cultured in maintenance medium during 30 days.
# [1] = tested on: genes involved in cardio-myogenesis (NKX2-5, GATA-4, MEF2C, MYH7B, GJA1, TNNT2); assay: Cardio-myogenic induction with 5-azacytidine, relative gene expression by RT-qPCR; type: cell-based, human; conditions: all MSC sources treated with 5-aza, 30 days of culture after induction
# Excerpt: In order to assess chorion, decidua, gelatin of Wharton, and bone marrow MSCs cardio-myogenic potential, 3000 cells per cm^2 of each one of the MSCs were planted in biologic triplicate (3 different donors) in a plate of 6, leaving 3 bowls for induced condition and other 3 for control condition. This method was developed to obtain cells for assessment through RT-qPCR. However, in order to assess protein expression through indirect immunofluorescence (IFI), cells were planted on a […] circular glass cover placed on a 24-bowl plate, leaving 12 bowls for induced condition and 12 bowls for control condition. […]
# The polymerase chain reaction in real time, preceded by reverse transcription (RT-qPCR), was based on quantification kinetics that allowed calculating the messenger RNA through the recording of PCR product forming in real time. This was the quantification, during the reaction exponential stage, of amplified PCR products and labeled with fluorochrome. In this work, a relative quantification of genes of interest was carried out, i.e. a gene of interest expression level is obtained compared to another one that keeps its expression constant and is called standardizing gene; therefore, in this thesis human gene B2M was selected as standardizing. […]
structure (smiles),measurement,setting,value
"Nc1ncn([C@@H]2O[C@H](CO)[C@@H](O)[C@H]2O)c(=O)n1 [5-aza, 5-azacytidine]",percentage of cells with rounded and flat morphology,MSCs,approximately 70%
same,percentage of cells with vacuoles inside them,MSCs; in some dishes,10%
same,relative expression of all genes associated to cardio-myogenesis compared to control,[1],significant increase
